Experimental data taken from ChEMBL document CHEMBL1201862, “PubChem BioAssay data set” (2004).
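Exposure lasted 48 hours, with cells grown in 96-well plates and compounds tested at five concentrations. GI50 = concentration required for 50% inhibition of growth.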 Calls of active or inactive are those of the source. Rule as the data show it: active = GI50 up to about 1.1 µM and inactive = higher.

Experiments:
Test in all cases: NCI anticancer screen, dose series, 48 h
SK-MEL-28 = system: SK-MEL-28
NCI-H23 = system: NCI-H23
MCF7 = system: MCF7
SNB-19 = system: SNB-19
KM12 = system: KM12
PC-3 = system: PC-3
NCI/ADR-RES = system: NCI/ADR-RES
COLO 205 = system: COLO 205
MDA-MB-231 = system: MDA-MB-231
UACC-62 = system: UACC-62
CAKI-1 = system: CAKI-1
HOP-62 = system: HOP-62
LOX IMVI = system: LOX IMVI
SR = system: SR
A549 = system: A549
CCRF-CEM = system: CCRF-CEM
EKVX = system: EKVX
SN12C = system: SN12C
HCC 2998 = system: HCC 2998
SK-OV-3 = system: SK-OV-3

Measured: GI50

O=C1N2CCN=C2c2ccccc2C1(O)c1ccccc1 (stereo not drawn)
inactive: SK-MEL-28 > 100 µM | NCI-H23 > 100 µM | MCF7 > 100 µM | SNB-19 > 100 µM | KM12 > 100 µM | PC-3 > 100 µM | NCI/ADR-RES > 100 µM | COLO 205 > 100 µM | MDA-MB-231 > 100 µM | UACC-62 > 100 µM | CAKI-1 > 100 µM | HOP-62 > 100 µM | LOX IMVI > 100 µM | SR > 100 µM | A549 > 100 µM | CCRF-CEM > 100 µM | EKVX > 100 µM | SN12C > 100 µM | HCC 2998 > 100 µM

COc1ccc2c(c1)CN1C(=N2)CSC1c1ccccc1Cl (stereo not drawn)
inactive: SK-MEL-28 11.1 µM | NCI-H23 1.66 µM | MCF7 25.9 µM | SNB-19 28.6 µM | KM12 18 µM | PC-3 16.3 µM | NCI/ADR-RES 10.1 µM | COLO 205 12.8 µM | MDA-MB-231 21.8 µM | UACC-62 17.6 µM | CAKI-1 29.1 µM | SK-OV-3 24.3 µM | HOP-62 31.6 µM | LOX IMVI 15 µM | SR 7.76 µM | A549 25.7 µM | EKVX 16.6 µM | SN12C 19.1 µM | HCC 2998 14.4 µM

COc1ccc(N2C(=O)C3CC4=CC(=O)C[C@H]4[C@H]32)cc1 (stereo partly drawn)
inactive: SK-MEL-28 > 100 µM | NCI-H23 > 100 µM | MCF7 67.6 µM | SNB-19 > 100 µM | KM12 44 µM | PC-3 28.4 µM | NCI/ADR-RES 44.1 µM | COLO 205 52.5 µM | MDA-MB-231 > 100 µM | UACC-62 45.2 µM | CAKI-1 23.4 µM | SK-OV-3 > 100 µM | HOP-62 44.9 µM | LOX IMVI 53.1 µM | SR 55.7 µM | A549 > 100 µM | SN12C 29.4 µM | HCC 2998 45.1 µM

C[N+](C)(C)CC(=O)N/N=C(/CC(=O)CC(C1=C(O)c2ccccc2OC1)c1ccccc1)C(=O)Nc1cccc(Cl)c1 (stereo not drawn)
inactive: SK-MEL-28 > 100 µM | NCI-H23 > 100 µM | MCF7 > 100 µM | KM12 > 100 µM | PC-3 > 100 µM | NCI/ADR-RES > 100 µM | COLO 205 > 100 µM | MDA-MB-231 > 100 µM | UACC-62 > 100 µM | CAKI-1 > 100 µM | SK-OV-3 > 100 µM | HOP-62 > 100 µM | LOX IMVI > 100 µM | SR > 100 µM | A549 > 100 µM | CCRF-CEM > 100 µM | EKVX > 100 µM | SN12C > 100 µM | HCC 2998 > 100 µM

COc1ccc(N2C(=O)C3c4[nH]c5ccc(OCc6ccccc6)cc5c4C4CCC(C(C)(C)C)CC4C3C2=O)cc1 (stereo not drawn)
inactive: SK-MEL-28 65.6 µM | NCI-H23 > 100 µM | MCF7 85.3 µM | SNB-19 > 100 µM | KM12 > 100 µM | PC-3 > 100 µM | NCI/ADR-RES 63.5 µM | COLO 205 > 100 µM | MDA-MB-231 53.2 µM | UACC-62 > 100 µM | CAKI-1 > 100 µM | SK-OV-3 > 100 µM | HOP-62 > 100 µM | LOX IMVI > 100 µM | SR > 100 µM | A549 > 100 µM | EKVX > 100 µM | SN12C 78.5 µM | HCC 2998 > 100 µM

N#Cc1cc2c(n(C3OC(CO)C(O)C(O)C3O)c1=S)CCCCCC2 (stereo not drawn)
inactive: SK-MEL-28 > 100 µM | NCI-H23 > 100 µM | MCF7 > 100 µM | SNB-19 > 100 µM | KM12 > 100 µM | PC-3 > 100 µM | NCI/ADR-RES > 100 µM | COLO 205 > 100 µM | MDA-MB-231 > 100 µM | UACC-62 > 100 µM | CAKI-1 > 100 µM | HOP-62 > 100 µM | LOX IMVI > 100 µM | SR > 100 µM | A549 > 100 µM | CCRF-CEM > 100 µM | SN12C > 100 µM | HCC 2998 > 100 µM

CCOC(=O)c1cc(C)nc2c1c(=O)n(-c1ccccc1)c(=O)n2CCCCN1CCN(c2ncccn2)CC1
inactive: SK-MEL-28 > 100 µM | NCI-H23 > 100 µM | MCF7 > 100 µM | KM12 > 100 µM | PC-3 61.4 µM | NCI/ADR-RES > 100 µM | COLO 205 60.1 µM | MDA-MB-231 80.7 µM | UACC-62 37.2 µM | CAKI-1 23.4 µM | SK-OV-3 > 100 µM | HOP-62 > 100 µM | LOX IMVI 56.9 µM | SR 29.9 µM | A549 > 100 µM | CCRF-CEM 31.8 µM | EKVX > 100 µM | SN12C > 100 µM | HCC 2998 > 100 µM

C[C@]12CC[C@H](O)CC1=CC[C@@H]1[C@@H]2CC[C@]2(C)/C(=N/OCCN3CCCC3)CC[C@@H]12
inactive: SK-MEL-28 16.5 µM | NCI-H23 14.1 µM | MCF7 19.1 µM | SNB-19 23.4 µM | KM12 13.7 µM | PC-3 17.8 µM | NCI/ADR-RES 18.2 µM | COLO 205 16 µM | MDA-MB-231 19.9 µM | UACC-62 15.5 µM | CAKI-1 20.9 µM | HOP-62 21.3 µM | LOX IMVI 19.1 µM | SR 14.8 µM | EKVX 10.8 µM | SN12C 29 µM | HCC 2998 22.3 µM
